Consider one compound from patent publication US11371019B2, “Efficient generation of human red blood cells via enriching peripheral blood erythroid progenitors” (Whitehead Institute for Biomedical Research, priority 2016, dated 2022).

Test [1] relates to purified mouse TGFBR3^lo BFU-E cells. Nature of the test: total red cell production from purified BFU-E cells in SFELE medium. The conditions noted are these: culture system; FIG. 13. The format is cell-based. The protocol: FIG. 13. A chart showing the treatment of purified mouse TGFBR3^lo BFU-E cells with DMSO, DEX or TGFβ signaling inhibitor galunisertib. The cells were seeded in SFELE medium supplemented with the test agent.
(§1) For new drug discovery or drug repurposing for treating blood diseases, compounds of interest were added into cell culture after progenitor purification. The efficacy of drugs is evaluated based on total red blood cell production, numbers of erythroid progenitor BFU-E and CFU-E (quantified by colony forming assay) and/or level of fetal globin expression.

Test [2] has as its system TGFBR3^lo mouse BFU-E cells. Nature of the test: colony forming assay for large BFU-E colony numbers. The format is cell-based. The conditions noted are these: culture system; FIG. 12. The protocol:
FIG. 12. A chart showing an exemplary colony forming assays were conducted to determine large BFU-E colony numbers from 100 TGFBR3^lo mouse BFU-E cells cultured under the indicated conditions. Colony forming assays were performed at indicated time points.
as §1

Consider `Cc1cccc(-c2nn3c(c2-c2ccnc4ccc(C(N)=O)cc24)CCC3)n1` [galunisertib], for which the “total red cell production” value in test [1] is “increase”. In addition, in test [2], the BFU-E numbers result was “increase BFU-E numbers”.
